According to publication PMC8725537, “Assessment of NSAIDs as potential inhibitors of the fatty acid amide hydrolase I (FAAH-1) using three different primary fatty acid amide substrates in vitro” (BMC Pharmacology & Toxicology, 2022):
Like-named read-outs stand apart in the source and are kept apart here.

How the values were obtained:
FAAH-1 [1] = target: T1, FAAH-1 (Rattus norvegicus, UniProt P97612); test: Inhibition of rat liver FAAH-1 oleamide hydrolase activity by NSAIDs (500 μM screen and concentration-inhibition curves); type: biochemical; details: for FAAH-1 oleamide hydrolase activity, % of control: 500 μM NSAID, oleamide substrate, rat liver
T1 construct: Liver obtained from male Wister rats; from tissue; host or cells: rat liver homogenate, 20,000 g membrane pellet (male Wistar rats, Charles River Laboratories)
T1 sequence (P97612 1-579): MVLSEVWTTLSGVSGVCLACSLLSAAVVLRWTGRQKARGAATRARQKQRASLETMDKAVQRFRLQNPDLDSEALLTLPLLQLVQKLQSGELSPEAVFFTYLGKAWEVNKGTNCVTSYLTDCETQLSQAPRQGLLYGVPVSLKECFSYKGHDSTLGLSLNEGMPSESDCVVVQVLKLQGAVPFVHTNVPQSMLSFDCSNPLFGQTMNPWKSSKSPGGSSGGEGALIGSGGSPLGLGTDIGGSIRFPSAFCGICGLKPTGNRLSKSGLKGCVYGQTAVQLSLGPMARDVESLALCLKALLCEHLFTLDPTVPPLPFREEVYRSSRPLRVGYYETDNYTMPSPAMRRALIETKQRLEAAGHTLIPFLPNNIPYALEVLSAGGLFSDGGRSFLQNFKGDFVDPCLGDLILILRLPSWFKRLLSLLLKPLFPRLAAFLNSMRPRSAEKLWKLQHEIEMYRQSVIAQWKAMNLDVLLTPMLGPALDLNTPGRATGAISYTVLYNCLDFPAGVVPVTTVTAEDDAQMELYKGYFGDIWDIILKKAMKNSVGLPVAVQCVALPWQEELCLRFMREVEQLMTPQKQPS
Description: (§1) FAAH-1 activity was studied in rat liver homogenate.
(§2) Liver obtained from male Wister rats (150–250 g, Charles River Laboratories, Wilmington, USA) which had been stored at − 40 °C was thawed. A volume of 6 ml/g wet weight of rat liver was homogenized in 0.2 M potassium phosphate buffer, pH 7.4 using a hand held homogenizer (Ultra-turrax) (Merck KGaA, Darmstadt, Germany). The resulting mixture was centrifuged at 250 g for 10 min after which the pellet obtained was re-homogenised and centrifuged as aforementioned. The supernatants were combined and centrifuged at 20,000 g for 30 min, after which the membrane containing pellet was re-suspended in 1:1^w/v 0.2 M potassium phosphate buffer, pH 7.4, and stored in 1 ml aliquots at − 40 °C.
FAAH-1 activity was assayed essentially as described previously. Briefly, rat liver homogenate was pre-incubated at 37 °C with shaking (50 × 10 rpm) for 10 min in 0.2 M phosphate buffer, pH 7.4 in 96-well microtitre plates (Thermo Scientific Inc., Waltham, USA) prior to substrate addition and incubation at 37 °C for 30 min. […] Substrate blank and a control containing 0.2 M phosphate buffer, pH 7.4, were incorporated into the experiments.
(§3) Effect of 500 μM concentration of NSAIDs (SIGMA-ALDRICH, Poole, UK) on each enzyme activity was analysed by removing the baseline line. Each specific activity was then plotted as percentage of control. Specific activity obtained at each inhibitor concentration for the concentration-inhibition curves were normalized and analysed using the inbuilt log (inhibitor) versus response variable slope (robust fit) and were constrained at the bottom (= 0.0%). Each specific activity was then plotted as percentage of the control. To determine the mode of inhibition, Vmax values were initially extrapolated from the (NH4)2SO4 standard curve plotted using the inbuilt second order polynomial (quadratic) Michaelis-Menten enzyme kinetics. These values were then adjusted using the protein concentrations of the preparations obtained from the Lowry protocol (Fig. SS1 and SS2).

FAAH-1 [2] = target: T1, FAAH-1; test: Rat liver FAAH-1 hydrolysis of primary fatty acid amide substrates (Michaelis-Menten, OPA fluorescence ammonia assay); type: biochemical; details: for Km / Vmax: rat liver FAAH-1, compound as substrate, pH 7.4, mean ± SEM n = 4
Description: as §1, §2
(§4) FAAH-1 activity was assayed essentially as described previously. Briefly, rat liver homogenate was pre-incubated at 37 °C with shaking (50 × 10 rpm) for 10 min in 0.2 M phosphate buffer, pH 7.4 in 96-well microtitre plates (Thermo Scientific Inc., Waltham, USA) prior to substrate addition and incubation at 37 °C for 30 min. The 100 μl total assay reaction mixtures were halted with an equivalent volume of o-phthaldehyde (OPA) developing solution (0.4 M potassium phosphate buffer, pH 11.5) and incubated further at 37 °C for 15 min before assessing fluorescence using a FLUOstar Galaxy (Excitation 390 nm, Emission 450–10 nm) (BMG LABTECH GmbH, Ortenberg, Germany). Substrate blank and a control containing 0.2 M phosphate buffer, pH 7.4, were incorporated into the experiments.
as §3, with “Data obtained were entered into a Microsoft Excel 2010 spread sheet and analysed with GraphPad Prism computer software programme (GraphPad Software Inc., San Diego, CA USA). Effect” for “Effect”
Fig. 1 Hydrolysis of oleamide (a), arachidonamide (b) and stearoylamide (c) by rat liver FAAH-1 activity. Rat liver FAAH-hydrolytic activity of each primary amide substrate in vitro, was assayed by quantification of ammonia released after hydrolysis. Ammonia generated in the presence of sulphite ions is reacted with alkaline o-phthaldehyde (OPA) to generate the stable fluorescent isoindole derivative (1-sulphonatoisoindole) which is quantified by fluorescent spectroscopy. Four separate experiments with three replicates on the same microtiter plate were conducted for each substrate using different rat liver preparations. Data are mean ± SEM (Standard Error of the Mean) of four separate preparations (n = 4) conducted in triplicate

FAAH-1 [3] = target: T1, FAAH-1; test: Mode of inhibition of rat liver FAAH-1 hydrolysis of oleamide and arachidonamide (Michaelis-Menten with inhibitor); type: biochemical; details: for Vmax (nmol/min/mg protein): Control (no inhibitor), compound as substrate; for Mode of inhibition of FAAH activity: Michaelis-Menten analysis, oleamide and arachidonamide substrates
Description: as §4
as §3, with “Data obtained were entered into a Microsoft Excel 2010 spread sheet and analysed with GraphPad Prism computer software programme (GraphPad Software Inc., San Diego, CA USA). Effect” for “Effect”
Unlike aspirin which is an irreversible inhibitor of COX enzymes, most other NSAIDs are reversible competitive inhibitors of the COX enzymes.
Data are mean ± SEM (Standard Error of the Mean) of four separate preparations (n = 4) conducted in triplicate

rat brain FAAH-1 = test system: rat brain FAAH-1; design: method as in PMID 23240907; details: rat brain FAAH-1, pH 7.4 ref 52; cited from earlier work
rat recombinant FAAH = test system: rat recombinant FAAH; design: method as in PMID 10571985; details: pH 9, oleamide hydrolysis ref 45; read-out: affinity (Km); cited from earlier work
[4] = test system: FAAH-1 in rat liver preparations; details: cited from earlier work
FAAH-1 in rat brain = test system: FAAH-1 in rat brain; design: method as in ref 41 = [41]; 41. Garle MJ, Clark JS and Alexander SPH. A fluorescence-derivatisation assay for fatty acid amide hydrolase activity. 2005; pA2 Online. E-journal of the British Pharmacological Society.; details: oleamide hydrolysis, rat brain ref 41; cited from earlier work
FAAH = test system: FAAH; design: method as in ref 68 = [68]; 68. Dongdem JT Dawson SP Alexander SPH Characterization of [3-(3-carbamoylphenyl) phenyl] N-cyclohexyl carbamate, an inhibitor of FAAH: effect on rat liver FAAH and HEK293T-FAAH-2 deamination of oleam; details: cited from earlier work
[5] = rat liver oleamide hydrolase activity, NSAID 4.0 × 10^-6 to 1.024 × 10^-3 M in absolute ethanol, n = 4

CC(=O)Nc1ccc(O)cc1 [Acetaminophen]
FAAH-1 oleamide hydrolase activity, % of control (FAAH-1 [1]): appeared to enhance enzyme activity

CCCCC/C=C\C/C=C\C/C=C\C/C=C\CCCC(N)=O [Arachidonamide]
FAAH-1 capacity (Vmax) higher compared with oleamide (FAAH-1 [2]; rat liver FAAH-1): 12%
FAAH-1 capacity (Vmax) higher than that for stearoylamide (FAAH-1 [2]; rat liver FAAH-1): 75%
Km (FAAH-1 [2]): 44.9 ± 7 µM
Vmax (FAAH-1 [2]): 10.1 ± 3.0 nmol/min/mg protein
Vmax (nmol/min/mg protein) (FAAH-1 [3]): 8.4 ± 1.2 nmol/min/mg protein

CC(C(=O)O)c1ccc2c(c1)[nH]c1ccc(Cl)cc12 (stereo not drawn) [Carprofen]
pIC50 (rat brain FAAH-1): 4.10
FAAH-1 oleamide hydrolase activity, % of control (FAAH-1 [1]): below 50 % of control

O=C(O)Cc1ccccc1Nc1c(Cl)cccc1Cl [Diclofenac]
FAAH-1 oleamide hydrolase activity, % of control (FAAH-1 [1]): below 50 % of control
IC50 (FAAH-1 [1]; [5]): 1260 µM

O=C(O)c1cc(-c2ccc(F)cc2F)ccc1O [Diflunisal]
FAAH-1 oleamide hydrolase activity, % of control (FAAH-1 [1]): below 50 % of control
IC50 (FAAH-1 [1]; [5]): 708 µM

Cc1c(N(C)CS(=O)(=O)[O-])c(=O)n(-c2ccccc2)n1C.[Na+] [Dipyrone]
pIC50 (M) (FAAH-1 [1]; [5]): 2.77 ± 0.07 M

CC(C)Cc1ccc(C(C)C(=O)O)cc1 (stereo not drawn) [Ibuprofen]
pIC50 (rat brain FAAH-1): 3.1

COc1ccc2c(c1)c(CC(=O)O)c(C)n2C(=O)c1ccc(Cl)cc1 [Indomethacin]
pIC50 (rat brain FAAH-1): 4.18
Mode of inhibition of FAAH activity (FAAH-1 [3]): non-competitive type inhibition
Vmax (nmol/min/mg protein) in presence of inhibitor (FAAH-1 [3]; substrate arachidonamide, + 200 μM inhibitor): 7.2 ± 0.9 nmol/min/mg protein
Vmax (nmol/min/mg protein) in presence of inhibitor (FAAH-1 [3]; substrate oleamide, + 200 μM inhibitor): 3.8 ± 0.4 nmol/min/mg protein

O=C(c1ccccc1)c1ccc2n1CCC2C(=O)O (stereo not drawn) [Ketorolac]
FAAH-1 oleamide hydrolase activity, % of control (FAAH-1 [1]): below 50 % of control
IC50 (FAAH-1 [1]; [5]): 1230 µM

Cc1ccc(Cl)c(Nc2ccccc2C(=O)O)c1Cl [Meclofenamic acid]
Mode of inhibition of FAAH activity (FAAH-1 [3]): non-competitive type inhibition
Vmax (nmol/min/mg protein) in presence of inhibitor (FAAH-1 [3]; substrate arachidonamide, + 100 μM inhibitor): 6.7 ± 1.0 nmol/min/mg protein
Vmax (nmol/min/mg protein) in presence of inhibitor (FAAH-1 [3]; substrate oleamide, + 100 μM inhibitor): 2.9 ± 0.1 nmol/min/mg protein
FAAH-1 oleamide hydrolase activity, % of control (FAAH-1 [1]): complete inhibition
IC50 (FAAH-1 [1]; [5]): 269 µM

CCCCCCCC/C=C\CCCCCCCC(N)=O [Oleamide]
Km (rat recombinant FAAH): 37 ± 7 µM
Vmax ([4]; oleamide hydrolysis, rat liver preparations ref 41): 15 nmol.min^− 1.mg protein^− 1
Km ([4]; oleamide hydrolysis, rat liver preparations ref 41, read-out: Km): 129 µM
Vmax ([4]; rat liver FAAH-catalysed oleamide hydrolysis ref 44): 5.7 nmol.min^− 1.mg protein^− 1
Km ([4]; rat liver FAAH-catalysed oleamide hydrolysis ref 44, read-out: affinity (Km)): 104 µM
Vmax (FAAH-1 [2]): 8.9 ± 1.1 nmol/min/mg protein
Km (FAAH-1 [2]; read-out: Km): 177 ± 15.5 µM
Vmax (nmol/min/mg protein) (FAAH-1 [3]): 4.6 ± 0.5 nmol/min/mg protein
Km (FAAH-1 in rat brain): 179 µM

CCCCCCCCCCCCCCCCCC(N)=O [Stearoylamide]
Vmax (FAAH-1 [2]): 2.5 ± 0.6 nmol/min/mg protein
Km (FAAH-1 [2]; read-out: Km): 4.6 ± 0.8 µM

CC1=C(CC(=O)O)c2cc(F)ccc2/C1=C\c1ccc(S(C)(=O)=O)cc1 [Sulindac sulphone]
IC50 (FAAH-1 [1]; [5]): 447 µM

CC1=C(CC(=O)O)c2cc(F)ccc2/C1=C\c1ccc([S+](C)[O-])cc1 (stereo not drawn) [Sulindac]
FAAH-1 oleamide hydrolase activity, % of control (FAAH-1 [1]): below 50 % of control
IC50 (FAAH-1 [1]; [5]): 224 µM

NC(=O)c1cccc(-c2cccc(OC(=O)NC3CCCCC3)c2)c1 [URB597]
Mode of FAAH inhibition (FAAH): uncompetitive

Cc1onc(-c2ccccc2)c1-c1ccc(S(N)(=O)=O)cc1 [Valdecoxib]
IC50 (FAAH-1 [1]; [5]): 1000 µM

CC(=O)Oc1ccccc1C(=O)O [acetyl salicylic acid]
FAAH-1 oleamide hydrolase activity, % of control (FAAH-1 [1]): appeared to enhance enzyme activity

CCO [ethanol]
FAAH-1 activity (%) (basal oleamide hydrolysis, % of control) (FAAH-1 [1]; 15% assay ethanol): 95 ± 1%
FAAH-1 activity (%) (basal oleamide hydrolysis, % of control) (FAAH-1 [1]; 20% assay ethanol): 78 ± 1%
FAAH-1 activity (%) (basal oleamide hydrolysis, % of control) (FAAH-1 [1]; 25% assay ethanol): 76 ± 4%
